Measured values: patent publication US4244952A, “Imidazo[2',1':2,3]-thiazolo[5,4-c]pyridines and composition thereof for treating immune diseases” (Yoshitomi Pharmaceutical Industries, Ltd., priority 1978, dated 1981)

Assays:
[1] = test system: rosette forming cells (RFC) in the spleen and thymus; experiment: Activity for potentiating immune response in dd-mice (RFC number after SRBC sensitization in CY-treated mice); assay type: in vivo, male dd-strain mice
Method: (I) Activity for potentiating immune response in dd-mice
As test animals, male dd-strain mice (8 week old) were used by dividing them into groups of 6 members. Each mouse was orally administered once a day with cyclophosphamide (CY) at a dose of 20 mg/kg 1 and 0 day before the sensitization. The sensitization (day 0) was made by the intravenous injection of the antigen; 1×10^8 sheep red blood cells (SRBC). Each mouse was orally administered with test compounds (day 0-4). Five days after the sensitization, the number of rosette forming cells (RFC) in the spleen and thymus was measured in a usual manner.

Acute toxicity = conditions: mouse, in vivo, male dd-strain mice
Method: Acute toxicity of the test compound was determined using male dd-strain mice (8 week old) as test animals. The test compound was administered orally or intraperitoneally.

[2] = test system: rosette forming cells (RFC) in the spleen and thymus; experiment: Activity for suppressing immune response in BALB/c mice (RFC number after SRBC sensitization); assay type: in vivo, female BALB/c-strain mice; conditions: 30 mg/kg p.o.; for RFC/organ Spleen: day 0 and 1; for RFC/organ Thymus: day 0 and 1, ** P < 0.01 vs. control
Method: (II) Activity for suppressing immune response in BALB/c mice
As test animals, female BALB/c-strain mice (6 week old) were used by dividing them into groups of 6 members.
The sensitization (day 0) was made by the intraperitoneal injection the antigen; 5×10^8 sheep red blood cells (SRBC). Each mouse was orally administered with test compounds at day 0 and 1. Four days after the sensitization, the number of rosette forming cells (RFC) in the spleen and thymus was measured in a usual manner.

[3] = CY alone, 20 mg/kg p.o. once a day, 1 and 0 day before sensitization, dd-mice
[4] = CY (20 mg/kg) + test compound 1 mg/kg p.o., day 0-4, * P < 0.05 vs. CY treatment
[5] = CY (20 mg/kg) + test compound 1 mg/kg p.o., day 0-4, ** P < 0.01 vs. CY treatment
[6] = CY (20 mg/kg) + test compound 10 mg/kg p.o., day 0-4
[7] = CY (20 mg/kg) + test compound 10 mg/kg p.o., day 0-4, * P < 0.05 vs. CY treatment

| SMILES | RFC/organ Spleen [1, 3] | RFC/organ Thymus [1, 3] | number of RFC per spleen and thymus ([1]; group treated with CY alone) | RFC/organ Thymus [1, 4] | RFC/organ Spleen [1, 5] | RFC/organ Spleen [1, 6] | RFC/organ Thymus [1, 7] | LD50 (Acute toxicity; ip) | LD50 (Acute toxicity; po) | RFC/organ Spleen [2] | RFC/organ Thymus [2] |
| --- | --- | --- | --- | --- | --- | --- | --- | --- | --- | --- | --- |
| O=P1(N(CCCl)CCCl)NCCCO1 (stereo not shown) [CY, cyclophosphamide, reference compound] | 101 × 10^4 | 0.44 × 10^4 | reduced significantly | – | – | – | – | – | – | – | – |
| CCOC(=O)N1CCc2c(sc3nc(-c4ccc([N+](=O)[O-])cc4)cn23)C1 [Compound A, 7-ethoxycarbonyl-2-(4-nitrophenyl)-5,6,7,8-tetrahydroimidazo[2',1':2,3]thiazolo[5,4-c]pyridine] | – | – | – | 3.33 × 10^4 | 169 × 10^4 | 220 × 10^4 | 3.11 × 10^4 | 600 mg/kg | 1000 mg/kg | 174 × 10^4 | 0.00 × 10^4 |
| O=[N+]([O-])c1ccc(CN2CCc3c(sc4nccn34)C2)cc1 [Compound B, 7-(4-nitrobenzyl)-5,6,7,8-tetrahydroimidazo[2',1':2,3]thiazolo-[5,4-c]pyridine] | – | – | – | 2.00 × 10^4 | 291 × 10^4 | 135 × 10^4 | 1.56 × 10^4 | 600 to 1000 mg/kg | 600 mg/kg | 104 × 10^4 | 0.14 × 10^4 |
